Measured values as given in paper PMC5603267 (Cell metabolism, 2017).

Experiments:
[1] = target: acetyl-CoA carboxylase 2 (ACC2) (Homo sapiens, UniProt O00763); test: purified ACC incubated with MK-4074, ATP, acetyl-CoA and NaH14CO3; assay type: biochemical
[2] = target: acetyl-CoA carboxylase 1 (ACC1) (Homo sapiens, UniProt Q13085); test: as above; assay type: biochemical

acetyl-CoA carboxylase 2 (ACC2), sequence (O00763 whole entry): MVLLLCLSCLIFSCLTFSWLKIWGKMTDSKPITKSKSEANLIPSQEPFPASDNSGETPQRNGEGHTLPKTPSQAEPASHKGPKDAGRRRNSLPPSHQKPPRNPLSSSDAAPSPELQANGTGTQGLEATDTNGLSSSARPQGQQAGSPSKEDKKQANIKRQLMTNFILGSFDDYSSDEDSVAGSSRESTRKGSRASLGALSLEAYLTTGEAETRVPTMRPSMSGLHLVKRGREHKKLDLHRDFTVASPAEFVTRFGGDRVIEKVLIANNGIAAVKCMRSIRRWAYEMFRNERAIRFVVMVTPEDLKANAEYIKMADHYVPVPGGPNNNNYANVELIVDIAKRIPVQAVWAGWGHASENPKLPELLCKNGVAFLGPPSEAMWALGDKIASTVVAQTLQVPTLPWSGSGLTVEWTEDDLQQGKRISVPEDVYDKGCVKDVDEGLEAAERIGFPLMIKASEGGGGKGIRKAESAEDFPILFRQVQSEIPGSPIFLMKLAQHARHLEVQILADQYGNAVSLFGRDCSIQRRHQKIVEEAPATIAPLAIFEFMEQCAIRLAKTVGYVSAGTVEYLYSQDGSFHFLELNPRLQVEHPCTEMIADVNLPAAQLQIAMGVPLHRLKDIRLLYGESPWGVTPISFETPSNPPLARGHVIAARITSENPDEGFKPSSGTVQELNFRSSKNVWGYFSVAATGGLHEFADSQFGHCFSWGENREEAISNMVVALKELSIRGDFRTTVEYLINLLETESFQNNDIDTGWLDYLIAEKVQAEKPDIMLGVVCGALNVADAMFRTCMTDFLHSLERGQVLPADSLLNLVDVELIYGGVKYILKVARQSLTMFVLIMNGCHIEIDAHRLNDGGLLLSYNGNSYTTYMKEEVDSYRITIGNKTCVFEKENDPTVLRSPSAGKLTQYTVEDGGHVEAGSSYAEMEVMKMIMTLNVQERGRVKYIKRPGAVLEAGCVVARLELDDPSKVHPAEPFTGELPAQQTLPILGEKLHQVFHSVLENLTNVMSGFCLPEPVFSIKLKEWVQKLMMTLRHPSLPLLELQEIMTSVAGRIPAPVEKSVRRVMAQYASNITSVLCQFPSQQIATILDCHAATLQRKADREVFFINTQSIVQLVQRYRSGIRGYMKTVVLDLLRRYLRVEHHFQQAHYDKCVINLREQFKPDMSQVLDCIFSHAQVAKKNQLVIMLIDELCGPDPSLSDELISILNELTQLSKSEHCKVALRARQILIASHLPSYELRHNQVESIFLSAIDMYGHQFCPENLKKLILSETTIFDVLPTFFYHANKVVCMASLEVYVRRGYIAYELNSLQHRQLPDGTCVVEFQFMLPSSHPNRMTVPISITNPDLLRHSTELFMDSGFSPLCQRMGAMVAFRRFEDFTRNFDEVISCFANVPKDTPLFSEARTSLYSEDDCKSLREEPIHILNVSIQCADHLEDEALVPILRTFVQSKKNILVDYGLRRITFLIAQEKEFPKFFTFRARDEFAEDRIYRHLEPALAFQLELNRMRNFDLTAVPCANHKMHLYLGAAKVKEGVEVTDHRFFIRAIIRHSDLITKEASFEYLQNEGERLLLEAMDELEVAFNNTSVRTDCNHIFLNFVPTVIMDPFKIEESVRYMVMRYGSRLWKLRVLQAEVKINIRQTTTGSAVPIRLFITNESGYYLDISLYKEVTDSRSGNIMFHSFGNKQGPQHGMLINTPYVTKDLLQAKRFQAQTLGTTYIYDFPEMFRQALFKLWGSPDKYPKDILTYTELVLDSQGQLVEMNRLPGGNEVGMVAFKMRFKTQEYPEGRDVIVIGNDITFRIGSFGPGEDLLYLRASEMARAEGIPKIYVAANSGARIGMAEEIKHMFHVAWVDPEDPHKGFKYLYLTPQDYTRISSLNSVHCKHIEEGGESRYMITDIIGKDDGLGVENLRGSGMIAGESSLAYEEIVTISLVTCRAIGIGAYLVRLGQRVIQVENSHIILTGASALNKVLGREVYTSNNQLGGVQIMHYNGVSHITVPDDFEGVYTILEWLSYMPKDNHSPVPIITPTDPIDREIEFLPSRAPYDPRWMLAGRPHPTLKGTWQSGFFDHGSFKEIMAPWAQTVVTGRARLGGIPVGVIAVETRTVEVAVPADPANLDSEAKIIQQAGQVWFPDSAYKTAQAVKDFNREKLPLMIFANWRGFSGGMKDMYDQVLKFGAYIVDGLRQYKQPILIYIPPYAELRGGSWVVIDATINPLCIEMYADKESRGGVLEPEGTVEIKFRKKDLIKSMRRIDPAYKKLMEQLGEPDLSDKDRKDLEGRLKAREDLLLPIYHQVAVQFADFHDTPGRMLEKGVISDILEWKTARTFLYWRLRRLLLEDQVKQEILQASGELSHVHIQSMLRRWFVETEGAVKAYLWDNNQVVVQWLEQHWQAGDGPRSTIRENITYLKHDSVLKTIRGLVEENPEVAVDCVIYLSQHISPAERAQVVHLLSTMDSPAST

IC50 [1]: ~3 nM
IC50 [2]: ~3 nM
SMILES: COc1cc(C(=O)N2CCC3(CC2)CC(=O)c2cc(-c4cncc(C(=O)O)c4)ccc2O3)cc2c1c(C)cn2C1CC1 [MK-4074]
